Results from US8802597B2, “Herbicidal pyrimidines” (E I du Pont de Nemours and Company, priority 2003, dated 2014).

What was measured:
Format in all cases: in vivo
[1] = test system: Surinam grass (Brachiaria decumbens); experiment: Test B pre/postemergence
Excerpt: (§1) Seeds selected from barnyardgrass (Echinochloa crus-galli), Surinam grass (Brachiaria decumbens), cocklebur (Xanthium strumarium), corn (Zea mays), crabgrass (Digitaria sanguinalis), giant foxtail (Setaria faberii), lambsquarters (Chenopodium album), morningglory (Ipomoea coccinea), pigweed (Amaranthus retroflexus), velvetleaf (Abutilon theophrasti), and wheat (Triticum aestivum) were planted and treated preemergence with test chemicals formulated in a non-phytotoxic solvent mixture which included a surfactant.
(§2) At the same time, plants selected from these crop and weed species and also blackgrass (Alopecurus myosuroides) and wild oat (Avena fatua) were treated with postemergence applications of test chemicals formulated in the same manner. Plants ranged in height from 2 to 18 cm (1- to 4-leaf stage) for postemergence treatments. Plant species in the flooded paddy test consisted of rice (Oryza sativa), umbrella sedge (Cyperus difformis), duck salad (Heteranthera limosa) and barnyardgrass (Echinochloa crus-galli) grown to the 2-leaf stage for testing. Treated plants and controls were maintained in a greenhouse for 13 to 15 days, after which time all species were compared to controls and visually evaluated. Plant response ratings, summarized in Table B, are based on a scale of 0 to 100 where 0 is no effect and 100 is complete control. A dash (-) response means no test result.

[2] = test system: barnyardgrass (Echinochloa crus-galli); experiment: Test B pre/postemergence
Excerpt: as §1, §2

[3] = test system: cocklebur (Xanthium strumarium); experiment: Test B pre/postemergence
Excerpt: as §1, §2

corn (Zea mays) = experiment: Test B pre/postemergence
Excerpt: as §1, §2

[4] = test system: crabgrass (Digitaria sanguinalis); experiment: Test B pre/postemergence
Excerpt: as §1, §2

[5] = test system: giant foxtail (Setaria faberii); experiment: Test B pre/postemergence
Excerpt: as §1, §2

[6] = test system: lambsquarters (Chenopodium album); experiment: Test B pre/postemergence
Excerpt: as §1, §2

[7] = test system: morningglory (Ipomoea coccinea); experiment: Test B pre/postemergence
Excerpt: as §1, §2

[8] = test system: pigweed (Amaranthus retroflexus); experiment: Test B pre/postemergence
Excerpt: as §1, §2

[9] = test system: velvetleaf (Abutilon theophrasti); experiment: Test B pre/postemergence
Excerpt: as §1, §2

[10] = test system: wheat (Triticum aestivum); experiment: Test B pre/postemergence
Excerpt: as §1, §2

[11] = test system: blackgrass (Alopecurus myosuroides); experiment: Test B postemergence; conditions: for Blackgrass plant response rating: 125 g ai/ha, scale 0 to 100 (0 no effect, 100 complete control); for Plant response rating, Blackgrass: 500 g ai/ha, scale 0 to 100
Excerpt: as §1, §2

wild oat (Avena fatua) = experiment: Test B postemergence; conditions: for Oat, Wild plant response rating: 125 g ai/ha, scale 0 to 100 (0 no effect, 100 complete control); for Plant response rating, Oat, Wild: 500 g ai/ha, scale 0 to 100
Excerpt: as §1, §2

[12] = test system: barnyardgrass (Echinochloa crus-galli); experiment: Test B flooded paddy test; conditions: Flood, 1000 g ai/ha; scale 0 (no effect) to 100 (complete control)
Experimental: as §2

[13] = test system: duck salad (Heteranthera limosa); experiment: Test B flooded paddy test; conditions: Flood, 1000 g ai/ha; scale 0 to 100
Experimental: as §2

rice (Oryza sativa) = experiment: Test B flooded paddy test; conditions: Flood, 1000 g ai/ha; scale 0 to 100
Experimental: as §2

[14] = test system: umbrella sedge (Cyperus difformis); experiment: Test B flooded paddy test; conditions: Flood, 1000 g ai/ha; scale 0 to 100
Experimental: as §2

[15] = Postemergence, 125 g ai/ha, scale 0 to 100 (0 no effect, 100 complete control)
[16] = Postemergence, 500 g ai/ha, scale 0 to 100
[17] = Preemergence, 125 g ai/ha, scale 0 to 100 (0 no effect, 100 complete control)
[18] = Preemergence, 500 g ai/ha, scale 0 to 100 (0 no effect, 100 complete control)

Compound: CCOC(=O)C(C)c1nc(C2CC2)nc(N)c1Br (stereo not drawn) [Compound 32]
- Surinam Grass plant response rating [1, 15]: 0
- Plant response rating, Surinam Grass [1, 16]: 10
- Plant response rating, Surinam Grass [1, 17]: 0
- Surinam Grass plant response rating [1, 18]: 0
- Barnyardgrass plant response rating [2, 15]: 20
- Plant response rating, Barnyardgrass [2, 16]: 70
- Plant response rating, Barnyardgrass [2, 17]: 0
- Barnyardgrass plant response rating [2, 18]: 10
- Cocklebur plant response rating [3, 15]: 40
- Plant response rating, Cocklebur [3, 16]: 90
- Plant response rating, Cocklebur [3, 17]: 80
- Cocklebur plant response rating [3, 18]: 90
- Corn plant response rating (corn (Zea mays); [15]): 0
- Plant response rating, Corn (corn (Zea mays); [16]): 10
- Plant response rating, Corn (corn (Zea mays); [17]): 0
- Corn plant response rating (corn (Zea mays); [18]): 0
- Crabgrass plant response rating [4, 15]: 10
- Plant response rating, Crabgrass [4, 16]: 20
- Plant response rating, Crabgrass [4, 17]: 0
- Crabgrass plant response rating [4, 18]: 40
- Foxtail, Giant plant response rating [5, 15]: 10
- Plant response rating, Foxtail, Giant [5, 16]: 20
- Plant response rating, Foxtail, Giant [5, 17]: 0
- Foxtail, Giant plant response rating [5, 18]: 0
- Lambsquarters plant response rating [6, 15]: 70
- Plant response rating, Lambsquarters [6, 16]: 80
- Plant response rating, Lambsquarters [6, 17]: 40
- Lambsquarters plant response rating [6, 18]: 90
- Morningglory plant response rating [7, 15]: 40
- Plant response rating, Morningglory [7, 16]: 90
- Plant response rating, Morningglory [7, 17]: 40
- Morningglory plant response rating [7, 18]: 80
- Pigweed plant response rating [8, 15]: 80
- Plant response rating, Pigweed [8, 16]: 80
- Plant response rating, Pigweed [8, 17]: 40
- Pigweed plant response rating [8, 18]: 90
- Velvetleaf plant response rating [9, 15]: 10
- Plant response rating, Velvetleaf [9, 16]: 50
- Plant response rating, Velvetleaf [9, 17]: 50
- Velvetleaf plant response rating [9, 18]: 80
- Wheat plant response rating [10, 15]: 20
- Plant response rating, Wheat [10, 16]: 30
- Plant response rating, Wheat [10, 17]: 0
- Wheat plant response rating [10, 18]: 10
- Blackgrass plant response rating [11]: 30
- Plant response rating, Blackgrass [11]: 40
- Oat, Wild plant response rating (wild oat (Avena fatua)): 20
- Plant response rating, Oat, Wild (wild oat (Avena fatua)): 30
- Plant response rating, Barnyardgrass [12]: 0
- Plant response rating, Ducksalad [13]: 0
- Plant response rating, Rice (rice (Oryza sativa)): 0
- Plant response rating, Sedge, Umbrella [14]: 0

Compound: CON=Cc1nc(C2CC2)nc(N)c1Br [Compound 48]
- Surinam Grass plant response rating [1, 15]: 0
- Plant response rating, Surinam Grass [1, 16]: 10
- Plant response rating, Surinam Grass [1, 17]: 30
- Surinam Grass plant response rating [1, 18]: 60
- Barnyardgrass plant response rating [2, 15]: 10
- Plant response rating, Barnyardgrass [2, 16]: 20
- Plant response rating, Barnyardgrass [2, 17]: 0
- Barnyardgrass plant response rating [2, 18]: 10
- Cocklebur plant response rating [3, 15]: 20
- Plant response rating, Cocklebur [3, 16]: 80
- Plant response rating, Cocklebur [3, 17]: 0
- Cocklebur plant response rating [3, 18]: 20
- Corn plant response rating (corn (Zea mays); [15]): 0
- Plant response rating, Corn (corn (Zea mays); [16]): 0
- Plant response rating, Corn (corn (Zea mays); [17]): 0
- Corn plant response rating (corn (Zea mays); [18]): 0
- Crabgrass plant response rating [4, 15]: 10
- Plant response rating, Crabgrass [4, 16]: 20
- Plant response rating, Crabgrass [4, 17]: 10
- Foxtail, Giant plant response rating [5, 15]: 10
- Plant response rating, Foxtail, Giant [5, 16]: 10
- Plant response rating, Foxtail, Giant [5, 17]: 30
- Foxtail, Giant plant response rating [5, 18]: 50
- Lambsquarters plant response rating [6, 15]: 60
- Plant response rating, Lambsquarters [6, 16]: 80
- Plant response rating, Lambsquarters [6, 17]: 70
- Lambsquarters plant response rating [6, 18]: 100
- Morningglory plant response rating [7, 15]: 30
- Plant response rating, Morningglory [7, 16]: 80
- Plant response rating, Morningglory [7, 17]: 0
- Morningglory plant response rating [7, 18]: 30
- Pigweed plant response rating [8, 15]: 60
- Plant response rating, Pigweed [8, 16]: 80
- Plant response rating, Pigweed [8, 17]: 60
- Pigweed plant response rating [8, 18]: 80
- Velvetleaf plant response rating [9, 15]: 10
- Plant response rating, Velvetleaf [9, 16]: 60
- Plant response rating, Velvetleaf [9, 17]: 0
- Velvetleaf plant response rating [9, 18]: 0
- Wheat plant response rating [10, 15]: 0
- Plant response rating, Wheat [10, 16]: 20
- Plant response rating, Wheat [10, 17]: 0
- Plant response rating, Wheat [10, 18]: 30
- Blackgrass plant response rating [11]: 0
- Plant response rating, Blackgrass [11]: 20
- Oat, Wild plant response rating (wild oat (Avena fatua)): 0
- Plant response rating, Oat, Wild (wild oat (Avena fatua)): 20
- Plant response rating, Barnyardgrass [12]: 20
- Plant response rating, Ducksalad [13]: 20
- Plant response rating, Rice (rice (Oryza sativa)): 0
- Plant response rating, Sedge, Umbrella [14]: 0

Compound: CCOC(=O)Cc1nc(-c2ccc(Cl)cc2)nc(N)c1Br [Compound 41]
- Surinam Grass plant response rating [1, 15]: 0
- Plant response rating, Surinam Grass [1, 16]: 10
- Surinam Grass plant response rating [1, 18]: 0
- Barnyardgrass plant response rating [2, 15]: 20
- Plant response rating, Barnyardgrass [2, 16]: 70
- Plant response rating, Barnyardgrass [2, 17]: 0
- Barnyardgrass plant response rating [2, 18]: 10
- Cocklebur plant response rating [3, 15]: 70
- Plant response rating, Cocklebur [3, 17]: 0
- Cocklebur plant response rating [3, 18]: 10
- Corn plant response rating (corn (Zea mays); [15]): 20
- Plant response rating, Corn (corn (Zea mays); [16]): 80
- Plant response rating, Corn (corn (Zea mays); [17]): 0
- Corn plant response rating (corn (Zea mays); [18]): 0
- Crabgrass plant response rating [4, 15]: 10
- Plant response rating, Crabgrass [4, 16]: 20
- Plant response rating, Crabgrass [4, 17]: 0
- Crabgrass plant response rating [4, 18]: 20
- Foxtail, Giant plant response rating [5, 15]: 20
- Plant response rating, Foxtail, Giant [5, 16]: 30
- Plant response rating, Foxtail, Giant [5, 17]: 0
- Foxtail, Giant plant response rating [5, 18]: 0
- Lambsquarters plant response rating [6, 15]: 80
- Plant response rating, Lambsquarters [6, 16]: 90
- Plant response rating, Lambsquarters [6, 17]: 30
- Lambsquarters plant response rating [6, 18]: 60
- Morningglory plant response rating [7, 15]: 70
- Plant response rating, Morningglory [7, 16]: 90
- Plant response rating, Morningglory [7, 17]: 0
- Morningglory plant response rating [7, 18]: 20
- Pigweed plant response rating [8, 15]: 70
- Plant response rating, Pigweed [8, 16]: 90
- Plant response rating, Pigweed [8, 17]: 0
- Pigweed plant response rating [8, 18]: 60
- Velvetleaf plant response rating [9, 15]: 50
- Plant response rating, Velvetleaf [9, 16]: 70
- Plant response rating, Velvetleaf [9, 17]: 10
- Velvetleaf plant response rating [9, 18]: 30
- Wheat plant response rating [10, 15]: 30
- Plant response rating, Wheat [10, 16]: 40
- Plant response rating, Wheat [10, 17]: 0
- Plant response rating, Wheat [10, 18]: 20
- Blackgrass plant response rating [11]: 20
- Plant response rating, Blackgrass [11]: 60
- Oat, Wild plant response rating (wild oat (Avena fatua)): 0
- Plant response rating, Oat, Wild (wild oat (Avena fatua)): 0
- Plant response rating, Barnyardgrass [12]: 0
- Plant response rating, Ducksalad [13]: 90
- Plant response rating, Rice (rice (Oryza sativa)): 0
- Plant response rating, Sedge, Umbrella [14]: 80
